US12351574B2, “Selective ligands for modulation of GIRK channels” (Northeastern University, priority 2018, dated 2025)

Molecular target: T1, GIRK1-S65Y with GIRK2 (UniProt P48542+P48549, S65Y)
T1 construct: expressed in transfected cells; host or cells: HEK293 cells
T1 sequence (P48549 1-501 S65Y): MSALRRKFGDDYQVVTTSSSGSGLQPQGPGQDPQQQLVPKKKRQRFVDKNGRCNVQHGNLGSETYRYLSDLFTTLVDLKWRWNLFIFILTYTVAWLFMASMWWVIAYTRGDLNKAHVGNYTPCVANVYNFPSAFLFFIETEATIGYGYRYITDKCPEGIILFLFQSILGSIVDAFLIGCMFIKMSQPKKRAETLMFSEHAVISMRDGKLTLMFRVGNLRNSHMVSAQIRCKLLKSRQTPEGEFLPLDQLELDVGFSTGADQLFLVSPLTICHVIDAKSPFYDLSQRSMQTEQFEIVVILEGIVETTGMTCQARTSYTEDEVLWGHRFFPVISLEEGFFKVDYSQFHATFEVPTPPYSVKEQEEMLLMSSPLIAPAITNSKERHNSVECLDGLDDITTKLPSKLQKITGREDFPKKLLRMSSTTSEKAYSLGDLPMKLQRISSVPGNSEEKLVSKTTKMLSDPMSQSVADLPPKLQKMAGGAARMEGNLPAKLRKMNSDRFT
T1 sequence (P48542 1-425): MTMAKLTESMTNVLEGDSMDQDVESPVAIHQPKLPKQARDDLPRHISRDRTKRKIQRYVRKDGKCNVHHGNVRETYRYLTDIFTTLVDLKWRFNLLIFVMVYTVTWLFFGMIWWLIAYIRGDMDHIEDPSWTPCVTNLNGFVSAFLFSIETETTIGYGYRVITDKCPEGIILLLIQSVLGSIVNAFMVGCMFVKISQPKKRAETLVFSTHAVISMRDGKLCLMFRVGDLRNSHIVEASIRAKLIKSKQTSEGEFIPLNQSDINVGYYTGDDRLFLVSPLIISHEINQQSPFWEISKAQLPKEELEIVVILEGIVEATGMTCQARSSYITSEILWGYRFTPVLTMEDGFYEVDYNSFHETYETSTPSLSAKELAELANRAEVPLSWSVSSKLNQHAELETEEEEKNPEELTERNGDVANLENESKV
Assay: 5-ptaseOCRL current inhibition, GIRK1/2 channels containing GIRK1-S65Y subunits
Type: cell-based, human GIRK1, mouse GIRK2
Settings: 10 μM GAT1508
From the text: To identify changes in specific channel residue interactions with PIP2 upon ligand binding, the inventors carried out Principal Component Analysis (PCA) in the presence and absence of ML297 and GAT1508. The PCA analysis implicated changes in the slide (or interfacial) helix interactions with PIP2 upon ligand binding. Polar interactions could be formed between GIRK2^FD(Y76) and GIRK4^FD(Y71) with the P(4,5) of PIP2 when ML297 was bound to the same subunit (FIG. 39 top, FIG. 40). In contrast, when GAT1508 was bound this interaction was retained by GIRK2^FD but not GIRK4^FD (FIG. 39 bottom, FIG. 40). The corresponding GIRK1(S65) residue (FIG. 41, highlighted with vertical rectangle) could be serving the same role in stabilizing the phosphoinositol headgroup for interactions with non-ligand binding subunits. As polar residues, both Ser and Tyr could form H-bond interactions with PIP2. […]
Patch-clamp recording: Whole-cell currents were recorded with an Axopatch 200B amplifier (Molecular Devices) controlled via a USB-interface (National Instruments) using WinWCP software (University of Strathclyde). […] The barium-sensitive component of the current, observed when cells were perfused with the high-K^+ buffer, was analyzed and was determined by perfusing 5 mM BaCl2 in the high-K^+ buffer at the end of each experiment. […]

SMILES: Cc1cc(NC(=O)Nc2ccc(Br)s2)n(-c2ccccc2)n1 [GAT1508, 1-(5-bromothiophen-2-yl)-3-(3-methyl-1-phenyl-1H-pyrazol-5-yl)urea]
- protection of current from 5-ptaseOCRL (in words): no additional effect
